Results published in article PMC6895180 (Nature Communications, 2019).
Values joined by “and” are separate entries in the source; they are usually repeats but may differ in a detail not shown here. Equal entries are not always repeated. Where two headings read alike, the source gives them in different places. Marks after values point to notes of the source that are not given here.

Legend:
T. brucei Squib 427 = assay: microbe, parasite or virus in culture; assay type: cell-based, Trypanosoma brucei brucei
Procedure: (§1) Drug susceptibility tests with Lister 427WT, TbAT1-KO[48], B48[26] and ISMR1[27] were performed using an assay based on the viability indicator dye resazurin in 96-well plates, each well containing 2 × 10^4 cells. The plates were incubated for 48 h with a doubling dilution series of the test compounds in HMI-9/fetal bovine serum at 37 °C/5% CO2 (23 dilutions starting at 100 µM, except for the pentamidine control (50 µM)), after which resazurin (20 µL of 125 µg mL^−1 resazurin sodium salt solution was added to each well (containing 200 µL of cells and test compound)) was added to each well and the plates incubated for another 24 h. Fluorescence was determined using a FLUOstar Optima (BMG Labtech, Durham, NC) and the results fitted to a sigmoid curve with variable slope using Prism 5.0 or Prism 7.04 (GraphPad, San Diego, CA).
(§2) Susceptibility assays with T. brucei Squib 427[49] or T. b. rhodesiense STIB-900[50] were performed under similar conditions as above, but using 10 concentrations of a 4-fold compound dilution series starting at 64 µM. Trypanosoma brucei Squib 427 was seeded at 1.5 × 10^4 parasites/well and T. b. rhodesiense at 4 × 10^3 parasites per well, followed by the addition of resazurin (final concentration of 10 µg mL^−1) after 24 h (T. brucei) or 6 h (T. b. rhodesiense).

[1] = test system: T. b. rhodesiense STIB-900; assay: microbe, parasite or virus in culture; assay type: cell-based, Trypanosoma brucei rhodesiense
Procedure: as §1, §2

[2] = Cytotoxicity on MRC-5 fibroblasts (resazurin); assay type: cell-based, human; details: human, MRC-5SV2 human embryonic lung fibroblasts, source data; read-out: MRC-5 EC50, single measurements
Procedure: (§3) Cytotoxicity assays were performed on MRC-5SV2 (Sigma-Aldrich/ECACC, catalogue number 84100401) human embryonic lung fibroblasts, which were cultured in minimum essential medium with Earle’s salt medium, supplemented with L-glutamine, NaHCO3 and 5% inactivated foetal calf serum. All cultures and assays were conducted at 37 °C with 5% CO2. Ten microliters of the aqueous compound dilutions were added to 190 µL of MRC-5SV2 (3 × 10^4 cells mL^−1). Cell growth was compared to untreated control wells (100% cell growth) and medium control wells (0% cell growth). After a 3-day incubation, cell viability was assessed fluorimetrically after the addition of 50 μL resazurin per well (final concentration of 10 µg mL^−1). After 4 h at 37 °C, fluorescence was measured (λex 550 nm, λem 590 nm). The results were expressed as percentage reduction in cell growth/viability compared to control wells and an EC50 was determined.

[3] = test system: MRC-5SV2 human embryonic lung fibroblasts; assay: Cytotoxicity on MRC-5 fibroblasts (resazurin); assay type: cell-based; details: source data; read-out: MRC-5 EC50, single measurements
Procedure: as §3

[4] = test system: T. b. brucei Lister 427WT; assay: Drug susceptibility test (resazurin), Lister 427WT; assay type: cell-based, Trypanosoma brucei brucei
Method in brief: (§4)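 Trypanosomes (2 × 10^4 cells/well) exposed 48 h at 37 °C/5% CO2 in HMI-9/FBS to 23-step doubling dilutions from 100 µM, then resazurin added for a further 24 h. Fluorescence fitted to a variable-slope sigmoid curve.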

[5] = test system: ISMR1: isometamidium-resistant T. brucei cell line; assay: microbe, parasite or virus in culture; assay type: cell-based, Trypanosoma brucei brucei
Method in brief: as §4

[6] = test system: TbAT1-KO: T. brucei cell line lacking the TbAT1(P2) transporter gene; assay: microbe, parasite or virus in culture; assay type: cell-based, Trypanosoma brucei brucei
Method in brief: as §4

[7] = test system: B48: pentamidine, diminazene and melaminophenyl arsenical resistant T. brucei line; assay: microbe, parasite or virus in culture; assay type: cell-based, Trypanosoma brucei brucei
[8] = resistance factor vs Lister 427WT

Nc1ncnc2c1c(Br)cn2[C@H]1C[C@H](O)[C@@H](CO)O1 [Compound 12, 7-Br-2′-deoxy-TUB]
EC50 (T. brucei Squib 427; Trypanosoma brucei, Alamar blue cell viability assay, mean and SEM, read-out: T. b. brucei EC50): 460 ± 80 nM
EC50 (T. brucei Squib 427; Trypanosoma brucei, source data, read-out: T. brucei brucei EC50, Average): 460 nM
EC50 (T. brucei Squib 427; Trypanosoma brucei, source data, read-out: T. brucei brucei EC50, single measurements): 382 nM
SI (MRC/T.b. brucei) (T. brucei Squib 427; selectivity index): 13
EC50 (T. brucei Squib 427; source data, read-out: T. brucei brucei EC50, single measurements): 533 nM
EC50 ([1]; Trypanosoma brucei, RHODESIENSE, Alamar blue cell viability assay, mean and SEM, read-out: T. b. rhodesiense EC50): 120 ± 10 nM
EC50 ([1]; Trypanosoma brucei, RHODESIENSE, source data, read-out: T. brucei rhodesiense EC50, Average): 120 nM
EC50 ([1]; Trypanosoma brucei, RHODESIENSE, source data, read-out: T. brucei rhodesiense EC50, single measurements): 116 nM
SI (MRC/T.b. rhodesiense) ([1]; selectivity index): 50
EC50 ([1]; source data, read-out: T. brucei rhodesiense EC50, single measurements): 126 nM
EC50 at 3 day [2]: 6830 nM
EC50 [3]: 5370 nM
EC50 ([4]; Trypanosoma brucei, mean and SEM, n = 3, read-out: Lister 427 EC50): 310 ± 63 nM
EC50 ([4]; Trypanosoma brucei, source data, read-out: s427 EC50, AVG): 313 nM
EC50 ([4]; Trypanosoma brucei, source data, read-out: s427 EC50, single determinations): 376 nM
EC50 ([4]; source data, read-out: s427 EC50, single determinations): 251 nM and 355 nM
EC50 ([5]; Trypanosoma brucei, mean and SEM, n = 3, read-out: ISMR1 EC50): 920 ± 120 nM
EC50 ([5]; Trypanosoma brucei, source data, read-out: ISMR1 EC50, AVG): 919 nM
EC50 ([5]; Trypanosoma brucei, source data, read-out: ISMR1 EC50, single determinations): 1150 nM
RF (ISMR1) [5, 8]: 2.93**
EC50 ([5]; source data, read-out: ISMR1 EC50, single determinations): 731 nM and 876 nM
EC50 ([6]; Trypanosoma brucei, read-out: TbAT1-KO EC50, AVG, source data): 758 nM
EC50 ([6]; Trypanosoma brucei, read-out: TbAT1-KO EC50, mean and SEM, n = 3): 760 ± 180 nM
EC50 ([6]; Trypanosoma brucei, read-out: TbAT1-KO EC50, single determinations, source data): 940 nM
EC50 ([6]; read-out: TbAT1-KO EC50, single determinations, source data): 576 nM and 850 nM
RF (TbAT1-KO) ([6]; resistance factor: ratio of EC50 of resistant and Lister 427WT): 2.37*
EC50 ([7]; Trypanosoma brucei, mean and SEM, n = 3, read-out: B48 EC50): 830 ± 160 nM
EC50 ([7]; Trypanosoma brucei, source data, read-out: B48 EC50, AVG): 827 nM
EC50 ([7]; Trypanosoma brucei, source data, read-out: B48 EC50, single determinations): 990 nM
RF (B48) [7, 8]: 2.64**
EC50 ([7]; source data, read-out: B48 EC50, single determinations): 664 nM and 844 nM
